Measured values published in patent publication US20150126465A1, “PROCESS FOR PRODUCING DERIVATIVES OF PYROSTEGIA VENUSTA, DERIVATIVES OF PYROSTEGIA VENUSTA, PHARMACEUTICAL COMPOSITIONS AND ITS USES” (priority 2011, published 2015).
≈ marks a conversion by molar mass, not a printed value. Like-named read-outs stand apart in the source and are kept apart here.

Tests used:
[1] = tested on: Candida albicans ATCC 10231; assay: MIC/CFM by microdilution (CLSI M27-A2); type: cell-based
[2] = tested on: Candida tropicalis USP 1658; assay: MIC by microdilution (CLSI M27-A2); type: cell-based; design: key: —: There was no growth inhibition
[3] = tested on: Candida parapsilosis ATCC 22019; assay: MIC/CFM by microdilution (CLSI M27-A2); type: cell-based
[4] = tested on: Candida parapsilosis USP 1933; assay: MIC/CFM by microdilution (CLSI M27-A2); type: cell-based; design: key to MIC: —: There was no growth inhibition
[5] = tested on: Candida albicans USP 1565; assay: MIC by microdilution (CLSI M27-A2); type: cell-based; design: key: —: There was no growth inhibition
[6] = tested on: Candida guilhermondii USP; assay: MIC/CFM by microdilution (CLSI M27-A2); type: cell-based; design: key to MIC: —: There was no growth inhibition
[7] = tested on: Candida krusei ATCC 6258; assay: MIC/CFM by microdilution (CLSI M27-A2); type: cell-based; design: key to MIC: —: There was no growth inhibition
[8] = tested on: Candida krusei USP 2223; assay: MIC by microdilution (CLSI M27-A2); type: cell-based; design: key: —: There was no growth inhibition
[9] = tested on: Candida albicans OF-M3-20; assay: MIC/CFM by microdilution (CLSI M27-A2); type: cell-based
Description: (§1) Pure substances termed P1 and P2 previously dissolved in 20% DMSO, were diluted in RPMI medium, with final concentrations of 96 μg.mL-1. […] The same was also tested individually, diluted in RPMI medium, with initial concentration of 1 μL.mL-1. […] Cultures of Candida sp. were prepared and standardized in […] saline solution at 0.85%. For inoculums standardization, a spectrophotometer equipment was used, with wavelength at 530 nm and absorbance adjustment between 0.130 and 0.150, having as white the saline solution free of inoculum or any other contaminant, corresponding to concentrations of 10^6 CFU/mL. In this condition the inoculum “mother” was diluted 50 times and from this inoculum “child” the dilution was performed 20 times to obtain a standard inoculum in 10^3 cells per well. […] To aid in the growth view, were added to the wells dye 50 μL 2,3,5-triphenyltetrazolium chloride (TTC) at 5 mg.mL “1, being performed the readings after 4 hours of incubation. Prior to the addition of dye, aliquots of 96-well plate were transferred to Petri with Agar-Sabouraud Dextrose to determine the Minimum Fungicidal Concentration. Plates were incubated for 24 hours at 35° C.

[10] = tested on: Candida albicans OF-M7-19; assay: MIC/CFM by microdilution (CLSI M27-A2); type: cell-based
Description: as §1

[11] = tested on: Candida albicans USP 1; assay: MIC/CFM by microdilution (CLSI M27-A2); type: cell-based
Description: as §1

[12] = tested on: Microsporum canis ATCC 32903; assay: MIC by microdilution, filamentous fungi (CLSI M38-A); type: cell-based; conditions: Table 13, Microsporum canis ATCC 32903, 7 days, 28° C.
Description: (§2) Pure substances termed P1 and P2 previously dissolved in 20% DMSO, were diluted in RPMI medium, with final concentrations of 96 μg.mL-1. […] Cultures of filamentous fungi described below were inoculated in Agar-Batata Dextrose medium and inoculated for 7 days, at 28° C. Colonies of cultures inoculated for 7 days in an oven at 28° C. were shrouded with 0.85% saline solution, scraped and then transferred to conical tubes. After resting for 5 minutes, the supernatant was transferred to new conical tubes for subsequent quantification in spectrophotometer, at 530 nm, with the transmittance adjustment of 80-82% for A. niger and 70% for other microorganisms. After adjustment, there was a 1:50 dilution in RPM. The determination of Minimum Inhibitory Concentration was performed after 7 days, at 28° C. After the incubation period, aliquots of 96-well plates were transferred to Petri plates with Potato Dextrose Agar, to determine the Minimum Fungicidal Concentration. Plates were inoculated for more 7 days, at 28° C.

[13] = tested on: Phomopsis longicolla (soy isolate); assay: as above; type: cell-based; conditions: Table 13, Phomopsis longicolla- soy, 7 days, 28° C.
Description: as §2

[14] = tested on: Trichophyton menthagrophyton ATCC 9533; assay: as above; type: cell-based; conditions: Table 13, Trichophyton menthagrophyton ATCC 9533, 7 days, 28° C.
Description: as §2

[15] = tested on: Candida tropicalis USP B3; assay: MIC by microdilution (CLSI M27-A2); type: cell-based; design: key: —: There was no growth inhibition
[16] = tested on: C. Albicans USP 2; assay: MIC/CFM against Candida sp. strains; type: cell-based; conditions: Table 14, C. Albicans USP 2
[17] = tested on: Candida glabrata ATCC; assay: MIC/CFM against Candida sp. strains; type: cell-based; conditions: Nakaseomyces glabratus; Table 14, Candida glabrata ATCC
[18] = tested on: Trichophyton rubrum ATCC MYA-3108; assay: MIC by microdilution, filamentous fungi (CLSI M38-A); type: cell-based; conditions: Table 11, Trichophyton rubrum ATCC MYA-3108
[19] = DPPH antioxidant test; type: biochemical; conditions: 517 nm
Description: The antioxidant activity evaluation was performed through DPPH test.
Extract flower ethanol samples and PV6.7 were dissolved in methanol in concentrations of 1 mg.mL-1, 500 μg, mL-1, 250 μg, mL-1, 125 μg, mL-1, 62.5 μg, mL-1 and 31.25 μg, mL-1. As control Metabissulfito and Rutin were used in the same conditions of the samples.
Around 0.002 g of DPPH was dissolved in 50 mL of methanol. Then, it was verified the solution absorbance in spectrophotometer, in 517 nm, which must be below 1.
In a plastic Eppendorf, it was added 950 μL of methanolic solution of DPPH and 50 μL of the sample. As white, it was used in the place of the sample 50 μL of methanol. The samples were then incubated for 15 minutes at 30° C. After this period, the solutions were transferred to cuvettes and performed the readings at 517 nm, zeroing the spectrophotometer with methanol.
% inhibition=B−A/B×100, being A=sample, and B=White

[20] = Table 11, C. Tropicalis USP 1658
[21] = Table 11, C. parapsilosis USP 1933

For CC(=O)N1CCN(c2ccc(OCC3COC(Cn4ccnc4)(c4ccc(Cl)cc4Cl)O3)cc2)CC1 (stereo not drawn) [Cetoconazol], the MIC ([1]; Table 12, C. albicans ATCC 10231, 48 h, 35° C.) was 32 µg/mL (≈ 60.2 µM), the MIC ([2]; Table 12, C. tropicalis USP 1658, 48 h, 35° C.) was “*<4 μg · mL^−1” and the MIC ([3]; Table 12, C. parapsilosis ATCC 22019, 48 h, 35° C.) was under 0.125 µg/mL. It also gave an MIC ([4]; Table 12, C. parapsilosis USP 1933, 48 h, 35° C.) of under 0.125 µg/mL, an MIC ([5]; Table 12, C. albicans USP 1565, 48 h, 35° C.) of under 0.125 µg/mL and an MIC ([6]; Table 12, C. guilhermondii USP, 48 h, 35° C.) of 0.125 µg/mL (≈ 0.235 µM). The MIC ([7]; Table 12, C. krusei ATCC 6258, 48 h, 35° C.) was under 0.125 µg/mL, the MIC ([8]; Table 12, C. krusei USP 2223, 48 h, 35° C.) was 2 µg/mL (≈ 3.76 µM) and the MIC ([9]; Table 12, C. albicans OF M3-20, 48 h, 35° C.) was under 0.125 µg/mL. The MIC ([10]; Table 12, C. albicans OF M7-19, 48 h, 35° C.) was under 0.125 µg/mL, the MIC ([11]; Table 12, C. albicans USP 1, 48 h, 35° C.) was under 0.125 µg/mL and the MIC [12] was 4 µg/mL (≈ 7.53 µM). The MIC [13] was under 0.125 µg/mL and the MIC [14] was 2 µg/mL (≈ 3.76 µM).

CC1OC(OC2C(O)C(COC(=O)/C=C/c3ccc(O)c(O)c3)OC(OCCc3ccc(O)c(O)c3)C2O)C(O)C(O)C1O (stereo not drawn) [Fraction P3, iso-verbascoside] showed an MIC ([1]; Candida albicans, ATCC10231, Table 14, C. Albicans ATCC 10231, read-out: MIC) of 3 µg/mL (≈ 4.8 µM), an MIC ([15]; Candida tropicalis, USPB3, Table 14, C. Tropicalis UPS B3, read-out: MIC) of 6 µg/mL (≈ 9.61 µM) and an MIC ([3]; Lodderomyces parapsilosis, ATCC22019, Table 14, C. parapsilosis ATCC 22019, read-out: MIC) of 1.5 µg/mL (≈ 2.4 µM). For the same compound, the MIC ([4]; Lodderomyces parapsilosis, USP1933, Table 14, C. parapsilosis USP 1933 ATCC, read-out: MIC) was 3 µg/mL (≈ 4.8 µM), the MFC ([6]; Table 14, Candida guilhermondi USPATCC, read-out: CFM (Minimum Fungicidal Concentration)) was 6 µg/mL (≈ 9.61 µM) and the MIC ([6]; Table 14, Candida guilhermondi USPATCC, read-out: MIC) was 1.5 µg/mL (≈ 2.4 µM). It also gave an MFC ([7]; Pichia kudriavzevii, ATCC6258, Table 14, C. krusei ATCC, read-out: CFM (Minimum Fungicidal Concentration)) of 12 µg/mL (≈ 19.2 µM), an MIC ([7]; Pichia kudriavzevii, ATCC6258, Table 14, C. krusei ATCC, read-out: MIC) of 1.5 µg/mL (≈ 2.4 µM) and an MIC ([8]; Pichia kudriavzevii, USP2223, Table 14, C. krusei USP 2223, read-out: MIC) of 1.5 µg/mL (≈ 2.4 µM). The MIC ([9]; Candida albicans, OFM320, Table 14, C. Albicans OF M3-20, read-out: MIC) was 3 µg/mL (≈ 4.8 µM), the MIC ([10]; Candida albicans, OFM719, Table 14, C. Albicans OF M7-19, read-out: MIC) was 0.75 µg/mL (≈ 1.2 µM) and the MIC ([11]; Candida albicans, USP1, Table 14, C. Albicans USP 1, read-out: MIC) was 1.5 µg/mL (≈ 2.4 µM). For the same compound, the MIC [16] was 3 µg/mL (≈ 4.8 µM) and the MIC [17] was 0.375 µg/mL (≈ 0.6 µM).

For CN(C/C=C/C#CC(C)(C)C)Cc1cccc2ccccc12 [Terbinafina ®, Terbinafina], the MIC ([15]; Table 11, C. Tropicalis USP B3) was “—”, the MIC [2, 20] was “—” and the MIC [4, 21] was “—”. For the same compound, the MIC ([5]; Table 11, C. Albicans USP 1565) was “—”, the MIC ([6]; Table 11, C. guilhermondii USP) was “—” and the MIC ([7]; Table 11, C. krusei ATCC 6258) was “—”. The MIC ([8]; Table 11, C. krusei ATCC 2223) was “—” and the MIC ([18]; read-out: MIC) was 0.25 µg/mL (≈ 0.858 µM).

In the case of O=S([O-])S(=O)(=O)[O-].[Na+].[Na+] [Metabissulfito], the “Antioxidant Activity Percentage” value ([19]; sample 31.25 μg · mL^−1, 15 minutes at 30° C.) is reported as 0%, the “Antioxidant Activity Percentage” value ([19]; sample 62.5 μg · mL^−1, 15 minutes at 30° C.) is reported as 0% and the “Antioxidant Activity Percentage” value ([19]; sample 125 μg · mL^−1, 15 minutes at 30° C.) is reported as 1.33%. The “Antioxidant Activity Percentage” value ([19]; sample 250 μg · mL^−1, 15 minutes at 30° C.) was 4.62%, the “Antioxidant Activity Percentage” value ([19]; sample 500 μg · mL^−1, 15 minutes at 30° C.) was 8.63% and the “Antioxidant Activity Percentage” value ([19]; sample 1 mg · mL^−1, 15 minutes at 30° C.) was 15.3%.

OC(Cn1cncn1)(Cn1cncn1)c1ccc(F)cc1F [Fluconazol] showed an MIC ([15]; Candida tropicalis, USPB3, Table 11, C. Tropicalis USP B3, read-out: MIC) of 1 µg/mL (≈ 3.27 µM), an MIC ([2]; Candida tropicalis, USP1658, Table 11, C. Tropicalis USP 1658, read-out: MIC) of under 1 µg/mL and an MIC ([4]; Lodderomyces parapsilosis, USP1933, Table 11, C. parapsilosis USP 1933, read-out: MIC) of under 1 µg/mL. It also gave an MIC ([5]; Candida albicans, USP1565, Table 11, C. Albicans USP 1565, read-out: MIC) of under 1 µg/mL, an MIC ([6]; Candida, Table 11, C. guilhermondii USP, read-out: MIC) of under 1 µg/mL and an MIC ([7]; Pichia kudriavzevii, ATCC6258, Table 11, C. krusei ATCC 6258, read-out: MIC) of 8 µg/mL (≈ 26.1 µM). It also gave an MIC ([8]; Pichia kudriavzevii, ATCC2223, Table 11, C. krusei ATCC 2223, read-out: MIC) of 64 µg/mL (≈ 209 µM) and an MIC ([18]; read-out: MIC) of 16 µg/mL (≈ 52.2 µM).

With C[C@@H]1[C@H](O)[C@@H](C)/C=C/C=C/C=C/C=C/C=C/C=C/C=C/[C@H](O[C@@H]2O[C@H](C)[C@@H](O)[C@H](N)[C@@H]2O)C[C@@H]2O[C@](O)(C[C@@H](O)C[C@@H](O)[C@H](O)CC[C@@H](O)C[C@@H](O)CC(=O)O[C@H]1C)C[C@H](O)[C@H]2C(=O)O [AnfotericinaB, Anfotericina B] the MIC ([15]; Table 11, C. Tropicalis USP B3) was 2 µg/mL (≈ 2.16 µM), the MIC [2, 20] was 1 µg/mL (≈ 1.08 µM) and the MIC [4, 21] was 2 µg/mL (≈ 2.16 µM). The MIC ([5]; Table 11, C. Albicans USP 1565) was 1 µg/mL (≈ 1.08 µM), the MIC ([6]; Table 11, C. guilhermondii USP) was 2 µg/mL (≈ 2.16 µM) and the MIC ([7]; Table 11, C. krusei ATCC 6258) was 1 µg/mL (≈ 1.08 µM). The MIC [18] was 1 µg/mL (≈ 1.08 µM), the MIC [12] was 1.56 µg/mL (≈ 1.69 µM) and the MIC [13] was 0.5 µg/mL (≈ 0.541 µM). It also gave an MIC [14] of 4 µg/mL (≈ 4.33 µM).
